# Experimental data reported in US4178442A, “Novel cinnamoyles piperazines and homopiperazines, the method of preparing them and their application in therapeutics” (Delalande S. A., priority 1977, dated 1979).
# Read-outs that look alike come from different tables or passages of the source.
# Assays:
# anaesthetized dog = assay: Antiangorous activity on anaesthetized dog: consumption of oxygen in the left ventricule and cardiac effort (KATZ's index); type: in vivo; details: for inhibition in vivo at 1.25 mg/kg / inhibition in vivo at 2.3 mg/kg / inhibition in vivo at […] / inhibition in vivo at 0.625 mg/kg / inhibition in vivo at 2.5 mg/kg: Canis lupus familiaris, iv
# Method in brief: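 Katz index taken as mean arterial pressure multiplied by ECG (D2) heart rate, and myocardial O2 use as coronary sinus flow via modified Morawitz cannula times coronary arteriovenous O2 difference. Animals: pentobarbital-anaesthetized dogs (30 mg/kg i.v.), test compounds infused slowly intravenously.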
# in vivo = details: for mortality: read-out: Toxicity (Mortality); for LD50: read-out: Toxicity: LD50
# Text: *LD50 or percentage of mortality which is given between brackets
# [1] = 1.25 mg/kg i.v. slow perfusion, read-out: Diminution in consumption of O2
# [2] = 1.25 mg/kg i.v. slow perfusion, read-out: Diminution in the cardiac effort (IK)
# [3] = 2.3 mg/kg i.v. slow perfusion, read-out: Diminution in consumption of O2
# [4] = 2.3 mg/kg i.v. slow perfusion, read-out: Diminution in the cardiac effort (IK)
# [5] = 0.15 mg/kg i.v. slow perfusion, read-out: Diminution in consumption of O2
# [6] = 0.15 mg/kg i.v. slow perfusion, read-out: Diminution in the cardiac effort (IK)
# [7] = 0.625 mg/kg i.v. slow perfusion
# [8] = 0.625 mg/kg i.v. slow perfusion, read-out: Diminution in consumption of O2
# [9] = 0.625 mg/kg i.v. slow perfusion, read-out: Diminution in the cardiac effort (IK)
compound,measurement,setting,value
CNC(=O)c1ccc(OCC(O)CN2CCN(C(=O)/C=C/c3cc(OC)c(OC)c(OC)c3)CC2)cc1 (centres unmarked) [770 135],Diminution in consumption of O2: in time,anaesthetized dog; 1.25 mg/kg i.v. slow perfusion,30 min
same,Diminution in the cardiac effort (IK): in time,anaesthetized dog; 1.25 mg/kg i.v. slow perfusion,30 min
same,inhibition in vivo at 1.25 mg/kg,anaesthetized dog; [1],40%
same,inhibition in vivo at 1.25 mg/kg,anaesthetized dog; [2],28%
same,mortality,"in vivo; iv, 400 mg/kg i.v.",0%
COc1cc(/C=C/C(=O)N2CCN(CC(O)CSc3ccccc3)CC2)cc(OC)c1OC (centres unmarked) [770 060],Diminution in consumption of O2: in time,anaesthetized dog; 2.3 mg/kg i.v. slow perfusion,23 min
same,Diminution in the cardiac effort (IK): in time,anaesthetized dog; 2.3 mg/kg i.v. slow perfusion,30 min
same,inhibition in vivo at 2.3 mg/kg,anaesthetized dog; [3],58%
same,inhibition in vivo at 2.3 mg/kg,anaesthetized dog; [4],35%
same,LD50,in vivo; iv,195 mg/kg
"COc1cc(/C=C/C(=O)N2CCN(CCCOc3ccc(C(C)=O)c4c3OCCO4)CC2)cc(OC)c1OC [760 939, 1-[3-(4-acetyl-2,3-ethylenedioxy)phenoxy]-propyl-4-(3,4,5-trimethoxycinnamoyl)piperazine]",Diminution in consumption of O2: in time,anaesthetized dog; 1.25 mg/kg i.v. slow perfusion,30 min
same,Diminution in the cardiac effort (IK): in time,anaesthetized dog; 1.25 mg/kg i.v. slow perfusion,23 min
same,inhibition in vivo at 1.25 mg/kg,anaesthetized dog; [1],27%
same,inhibition in vivo at 1.25 mg/kg,anaesthetized dog; [2],11%
same,mortality,"in vivo; iv, 400 mg/kg i.v.",20%
COc1cc(/C=C/C(=O)N2CCN(CC(O)COc3ccc(C(=O)Nc4ccccc4)c4c3OCCO4)CC2)cc(OC)c1OC (centres unmarked) [770 848],inhibition in vivo at […],anaesthetized dog; [5],41%
same,inhibition in vivo at […],anaesthetized dog; [6],5%
same,mortality,"in vivo; iv, 400 mg/kg i.v.",10%
COc1cc(/C=C/C(=O)N2CCCN(CC(O)COc3ccc(C(C)=O)c4c3OCCO4)CC2)cc(OC)c1OC (centres unmarked) [760 622],Diminution in consumption of O2: in time,anaesthetized dog; 1.25 mg/kg i.v. slow perfusion,30 min
same,Diminution in the cardiac effort (IK): in time,anaesthetized dog; 1.25 mg/kg i.v. slow perfusion,15 min
same,inhibition in vivo at 1.25 mg/kg,anaesthetized dog; [1],20%
same,inhibition in vivo at 1.25 mg/kg,anaesthetized dog; [2],17%
same,mortality,"in vivo; iv, 400 mg/kg i.v.",40%
"Cc1cccc(C)c1NC(=O)CN1CCN(CCCC(c2ccc(F)cc2)c2ccc(F)cc2)CC1 [LIDOFLAZINE, reference compound]",inhibition in vivo at […],"anaesthetized dog; 1.5 mg/kg i.v. slow perfusion, read-out: Diminution in consumption of O2",48%
same,inhibition in vivo at […],"anaesthetized dog; 1.5 mg/kg i.v. slow perfusion, read-out: Diminution in the cardiac effort (IK)",40%
same,mortality,"in vivo; iv, 25 mg/kg i.v.",50%
CCCCC(=O)Nc1ccc(OCC(O)CN2CCN(C(=O)/C=C/c3cc(OC)c(OC)c(OC)c3)CC2)c2c1OCCO2 (centres unmarked) [770 601],Diminution in consumption of O2: in time,anaesthetized dog; [7],30 min
same,Diminution in the cardiac effort (IK): in time,anaesthetized dog; [7],30 min
same,inhibition in vivo at 0.625 mg/kg,anaesthetized dog; [8],69%
same,inhibition in vivo at 0.625 mg/kg,anaesthetized dog; [9],25%
same,mortality,"in vivo; po, p.o.: 2000 mg/kg",22%
COc1cc(/C=C/C(=O)N2CCN(CC(O)COc3ccccc3F)CC2)cc(OC)c1OC (centres unmarked) [760 619],Diminution in consumption of O2: in time,anaesthetized dog; 2.3 mg/kg i.v. slow perfusion,30 min
same,Diminution in the cardiac effort (IK): in time,anaesthetized dog; 2.3 mg/kg i.v. slow perfusion,30 min
same,inhibition in vivo at 2.3 mg/kg,anaesthetized dog; [3],55%
same,inhibition in vivo at 2.3 mg/kg,anaesthetized dog; [4],44%
same,LD50,in vivo; iv,158 mg/kg
COc1cc(/C=C/C(=O)N2CCN(CC(O)COc3ccc(C(=O)NC4CCCCC4)c4c3OCCO4)CC2)cc(OC)c1OC (centres unmarked) [770 831],Diminution in consumption of O2: in time,anaesthetized dog; 1.25 mg/kg i.v. slow perfusion,30 min
same,Diminution in the cardiac effort (IK): in time,anaesthetized dog; 1.25 mg/kg i.v. slow perfusion,45 min
same,inhibition in vivo at 1.25 mg/kg,anaesthetized dog; [1],45%
same,inhibition in vivo at 1.25 mg/kg,anaesthetized dog; [2],27%
same,mortality,"in vivo; po, p.o.: 2000 mg/kg",0%
CCCCNC(=O)Nc1ccc(OCC(O)CN2CCN(C(=O)/C=C/c3cc(OC)c(OC)c(OC)c3)CC2)c2c1OCCO2 (centres unmarked) [770 634],inhibition in vivo at […],anaesthetized dog; [5],69%
same,inhibition in vivo at […],anaesthetized dog; [6],27%
same,mortality,"in vivo; iv, 400 mg/kg i.v.",30%
COc1cc(/C=C/C(=O)N2CCN(CC(O)COc3cccc(C#N)c3)CC2)cc(OC)c1OC (centres unmarked) [760 784],Diminution in consumption of O2: in time,anaesthetized dog; 2.3 mg/kg i.v. slow perfusion,30 min
same,Diminution in the cardiac effort (IK): in time,anaesthetized dog; 2.3 mg/kg i.v. slow perfusion,30 min
same,inhibition in vivo at 2.3 mg/kg,anaesthetized dog; [3],44%
same,inhibition in vivo at 2.3 mg/kg,anaesthetized dog; [4],12%
same,LD50,in vivo; iv,372 mg/kg
CCCC(=O)Nc1ccc(OCC(O)CN2CCN(C(=O)/C=C/c3cc(OC)c(OC)c(OC)c3)CC2)c2c1OCCO2 (centres unmarked) [770 610],Diminution in consumption of O2: in time,anaesthetized dog; [7],60 min
same,Diminution in the cardiac effort (IK): in time,anaesthetized dog; [7],45 min
same,inhibition in vivo at 0.625 mg/kg,anaesthetized dog; [8],56%
same,inhibition in vivo at 0.625 mg/kg,anaesthetized dog; [9],34%
same,mortality,"in vivo; po, p.o.: 2000 mg/kg",0%
COc1cc(/C=C/C(=O)N2CCN(CC(O)COc3ccc([N+](=O)[O-])c(C)c3)CC2)cc(OC)c1OC (centres unmarked) [770 963],Diminution in consumption of O2: in time,anaesthetized dog; 2.5 mg/kg i.v. slow perfusion,30 min
same,Diminution in the cardiac effort (IK): in time,anaesthetized dog; 2.5 mg/kg i.v. slow perfusion,30 min
same,inhibition in vivo at 2.5 mg/kg,"anaesthetized dog; 2.5 mg/kg i.v. slow perfusion, read-out: Diminution in consumption of O2",58%
same,inhibition in vivo at 2.5 mg/kg,"anaesthetized dog; 2.5 mg/kg i.v. slow perfusion, read-out: Diminution in the cardiac effort (IK)",66%
same,LD50,in vivo; iv,190 mg/kg
CCCNC(=O)Nc1ccc(OCC(O)CN2CCN(C(=O)/C=C/c3cc(OC)c(OC)c(OC)c3)CC2)c2c1OCCO2 (centres unmarked) [770 483],inhibition in vivo at […],anaesthetized dog; [5],74%
same,inhibition in vivo at […],anaesthetized dog; [6],16%
same,mortality,"in vivo; po, p.o.: 2000 mg/kg",0%
